These results are taken from DBAASP.

Common to all, as to test: ≥ marks a high value that may be exact or a test limit, other limits are often not marked, values filed in µg/mL are converted to µM
The test system of test [1] is Staphylococcus aureus ATCC 6538P.
Test [2] relates to Staphylococcus aureus.
For test [3], the system named is Bacillus subtilis ATCC 6633.
The subject of test [4] is Staphylococcus aureus ATCC 6538.
Test [5] has as its system Candida albicans ATCC 90028.
Test [6] deals with Staphylococcus aureus ATCC 43300.
Test [7] has as its system Escherichia coli ATCC 8739.
The test system of test [8] is Staphylococcus aureus ATCC 25923.
In test [9] the test system is Candida albicans ATCC 10231.
The subject of test [10] is Escherichia coli D31.
Test [11] concerns Pseudomonas aeruginosa ATCC 15442.
Test [12] relates to Streptococcus mutans ATCC 25175.
The test system of test [13] is Micrococcus luteus ATCC 9341.
The test system of test [14] is Escherichia coli DH5alpha.
Test [15] has as its system Staphylococcus xylosus.

Values after ≈ are worked out from the molar mass of the structure shown.

For the molecule `CC[C@H](C)[C@@H]1NC(=O)[C@H](C)NC(=O)[C@H](CC(C)C)NC(=O)[C@@H]2CSSC[C@@H](C(=O)N[C@@H](CCCN=C(N)N)C(=O)N[C@@H](CCCN=C(N)N)C(=O)O)NC(=O)[C@H]([C@@H](C)CC)NC(=O)[C@@H]3CSSC[C@H](NC(=O)[C@H](CC(C)C)NC(=O)[C@H](CO)NC(=O)[C@H](Cc4cnc[nH]4)NC(=O)[C@H](CC(N)=O)NC(=O)[C@H](C)NC(=O)[C@H](C)NC(=O)[C@H](Cc4ccccc4)NC(=O)CNC(=O)[C@H](CCCCN)NC(=O)[C@H](C)NC(=O)[C@H](CCC(=O)O)NC(=O)[C@H](Cc4ccccc4)NC(=O)[C@H](CO)NC(=O)[C@H](CC(C)C)NC(=O)[C@H](CC(C)C)NC(=O)[C@H](CC(=O)O)NC(=O)[C@@H](NC(=O)[C@@H](NC(=O)[C@@H](N)C(C)C)[C@@H](C)O)CSSC[C@H](NC(=O)[C@H](CO)NC(=O)CNC(=O)CNC(=O)[C@H](CCCN=C(N)N)NC(=O)[C@H](CCCN=C(N)N)NC(=O)CNC1=O)C(=O)N[C@@H](CCC(=O)O)C(=O)N[C@@H](CCCN=C(N)N)C(=O)NCC(=O)N[C@@H](C(C)C)C(=O)N3)C(=O)N[C@@H](C)C(=O)N[C@@H](C)C(=O)N[C@@H](Cc1cnc[nH]1)C(=O)N2` [VTCDLLSFEAKGFAANHSLCAAHCLAIGRRGGSCERGVCICRR], the MIC – broadly, the lowest concentration found to suppress growth – in test [1] was 0.878 µM; in [2], 4.39 µM.
With `CC[C@H](C)[C@H](NC(=O)CN)C(=O)N[C@@H](CC(C)C)C(=O)NCC(=O)N[C@H](C(=O)N[C@H](C(=O)N[C@@H](Cc1ccccc1)C(=O)N[C@@H](CCCCN)C(=O)N[C@@H](C)C(=O)NCC(=O)N[C@@H](CCCCN)C(=O)NCC(=O)N[C@H](C(=O)N[C@H](C(=O)N[C@H]1CSSC[C@@H](C(=O)O)NC(=O)[C@H](CC(C)C)NC(=O)CNC(=O)[C@H]([C@@H](C)O)NC(=O)[C@H](CC(C)C)NC(=O)CNC1=O)C(C)C)[C@@H](C)CC)C(C)C)[C@@H](C)O` [GILGTVFKAGKGIVCGLTGLC], the MIC is 12.5 µM (≈ 25.1 µg/mL) in test [3]; 3.1 µM (≈ 6.22 µg/mL) in [4]; no less than 50 µM in test [5]; 12.5 µM (≈ 25.1 µg/mL) in [6]; no less than 50 µM in test [7].
Take `CC(C)C[C@H](NC(=O)CN)C(=O)N[C@H](C(=O)N[C@H](C(=O)N[C@@H](CC(=O)O)C(=O)N[C@H](C(=O)N[C@@H](CC(C)C)C(=O)N[C@@H](CCCCN)C(=O)NCC(=O)N[C@@H](C)C(=O)N[C@@H](C)C(=O)N[C@@H](CCCCN)C(=O)N[C@H](C(=O)N[C@H](C(=O)N[C@@H](C)C(=O)N[C@@H](C)C(=O)N[C@@H](CCC(=O)O)C(=O)N[C@@H](CC(C)C)C(=O)N[C@@H](CC(C)C)C(=O)N[C@@H](CCCN=C(N)N)C(=O)N[C@@H](CCCCN)C(=O)N[C@@H](C)C(=O)N[C@@H](Cc1cnc[nH]1)C(N)=O)C(C)C)[C@@H](C)O)[C@@H](C)O)[C@@H](C)O)C(C)C` [GLVTDTLKGAAKTVAAELLRKAH]: the MIC in [8] was 45.3 µM (≈ 107 µg/mL); in [9] it was greater than 100 µM; in test [10], no less than 100 µM; in test [11] it was no less than 100 µM; in test [12] it was no less than 100 µM.
With `CC[C@H](C)[C@H](N)C(=O)N[C@@H](CC(C)C)C(=O)N1CCC[C@H]1C(=O)N[C@@H](Cc1c[nH]c2ccccc12)C(=O)N[C@@H](CCCCN)C(=O)N[C@@H](Cc1c[nH]c2ccccc12)C(=O)N1CCC[C@H]1C(=O)N[C@@H](Cc1c[nH]c2ccccc12)C(=O)N[C@@H](Cc1c[nH]c2ccccc12)C(=O)N1CCC[C@H]1C(=O)N[C@@H](Cc1c[nH]c2ccccc12)C(=O)N[C@@H](C)C(=O)N[C@@H](CCCN=C(N)N)C(N)=O` [ILPWKWPWWPWAR], in [13], the MIC was 0.4 µM (≈ 0.728 µg/mL).
Regarding `CC[C@H](C)[C@H](NC(=O)[C@H](CC(C)C)NC(=O)[C@@H](NC(=O)[C@H](CCCN=C(N)N)NC(=O)[C@H](CCCCN)NC(=O)[C@H](CCCN=C(N)N)NC(=O)[C@H](CCCCN)NC(=O)[C@H](CC(C)C)NC(=O)[C@@H](NC(=O)[C@H](CC(C)C)NC(=O)[C@H](CCCCN)NC(=O)[C@@H](N)CCCN=C(N)N)[C@@H](C)CC)[C@@H](C)CC)C(=O)N[C@@H](CCCCN)C(=O)N[C@@H](CCCN=C(N)N)C(=O)O` [RKLILKRKRILIKR], the MIC in [14] was found to be 16 µM (≈ 29.4 µg/mL); in test [15], 8 µM (≈ 14.7 µg/mL).
The like results for `CC[C@H](C)[C@H](NC(=O)[C@H](CC(C)C)NC(=O)[C@@H](NC(=O)[C@H](CC(C)C)NC(=O)[C@@H](NC(=O)[C@H](CCCCN)NC(=O)[C@H](CCCN=C(N)N)NC(=O)[C@@H](N)CCCCN)[C@@H](C)CC)[C@@H](C)CC)C(=O)N[C@@H](CCCCN)C(=O)N[C@@H](CCCN=C(N)N)C(=O)N[C@@H](CCCCN)C(=O)O` [KRKILILIKRK] were, in that order, 8 µM (≈ 11.3 µg/mL) and 2 µM (≈ 2.82 µg/mL).
On to `CC[C@H](C)[C@H](NC(=O)[C@H](CCCCN)NC(=O)[C@@H](NC(=O)[C@H](CO)NC(=O)[C@H](CC(N)=O)NC(=O)[C@H](Cc1c[nH]c2ccccc12)NC(=O)[C@H](CC(C)C)NC(=O)CN)[C@@H](C)CC)C(=O)N[C@@H](C)C(=O)NCC(=O)N[C@@H](CCCCN)C(=O)N[C@@H](CC(N)=O)C(=O)N[C@@H](CC(C)C)C(=O)N[C@@H](Cc1ccccc1)C(=O)N[C@H](C(=O)N[C@@H](CC(N)=O)C(=O)N[C@H](C(=O)N[C@@H](CC(C)C)C(=O)N[C@@H](CC(=O)O)C(=O)N[C@@H](CCCCN)C(=O)N[C@H](C(=O)N[C@@H](CCCN=C(N)N)C(=O)N[C@H]1CSSC[C@@H](C(=O)O)NC(=O)CNC(=O)CNC(=O)[C@H](C)NC(=O)[C@H](C(C)C)NC(=O)[C@H](CCCCN)NC1=O)[C@@H](C)CC)C(C)C)C(C)C` [GLWNSIKIAGKNLFVNVLDKIRCKVAGGC], for which the MIC in test [4] is 3.1 µM (≈ 9.66 µg/mL); in [5] it was no less than 100 µM; in [6] it was 12.5 µM (≈ 38.9 µg/mL); in test [7], 12.5 µM (≈ 38.9 µg/mL).
With `CC[C@H](C)[C@H](N)C(=O)N[C@@H](CC(C)C)C(=O)N[C@H](C(=O)N[C@@H](CC(C)C)C(=O)N[C@H](C(=O)N[C@@H](CCCCN)C(=O)N[C@@H](CCCN=C(N)N)C(=O)N[C@@H](CCCCN)C(=O)O)[C@@H](C)CC)[C@@H](C)CC` [ILILIKRK], the MIC in test [14] and in test [15] was no less than 64 µM throughout.
As for `CC[C@H](C)[C@H](NC(=O)[C@H](CC(C)C)NC(=O)[C@@H](NC(=O)[C@H](CC(C)C)NC(=O)[C@@H](NC(=O)[C@@H](N)CCCCN)[C@@H](C)CC)[C@@H](C)CC)C(=O)N[C@@H](CCCCN)C(=O)N[C@@H](CCCN=C(N)N)C(=O)N[C@@H](CCCCN)C(=O)O` [KILILIKRK], the MIC in test [14] was no less than 32 µM; in [15], 16 µM (≈ 18 µg/mL).
